Active and inactive are the calls of the source. No cut-off for these calls is given here.
What was measured:
[1] = Cytotoxicity against human Chang cells assessed as reduction in cell viability by fluorescence based viable cell counting method
[2] = test system: M-HeLa; test: Antiproliferative activity against human M-HeLa cells by fluorescence based viable cell counting method; type: functional
[3] = test system: Aspergillus niger; test: Antimicrobial activity against Aspergillus niger BKMF 1119 by serial dilution method; type: functional
[4] = test system: Pseudomonas aeruginosa; test: Antimicrobial activity against Pseudomonas aeruginosa ATCC 9027 by serial dilution method; type: functional
[5] = test system: Trichophyton mentagrophytes; test: Antimicrobial activity against Trichophyton mentagrophytes var. gypseum 1773 by serial dilution method; type: functional
[6] = test system: Escherichia coli; test: Antimicrobial activity against Escherichia coli CDC F-50 by serial dilution method; type: functional
[7] = test system: MCF7; test: Antiproliferative activity against human MCF7 cells by fluorescence based viable cell counting method; type: functional
[8] = test system: Staphylococcus aureus; test: Antimicrobial activity against Staphylococcus aureus ATCC 209P by serial dilution method; type: functional
[9] = test system: Candida albicans; test: Antimicrobial activity against Candida albicans 855-653 by serial dilution method; type: functional
[10] = Hemolytic activity in human erythrocytes at 100.0 +/- 7.8 uM incubated for 1 hrs by photometric analysis relative to control; type: ADME, cell-based, Erythrocyte; settings: read-out: Activity
[11] = test system: Bacillus cereus; test: Antimicrobial activity against Bacillus cereus ATCC 8035 by serial dilution method; type: functional
[12] = Antioxidant activity assessed as ABAP free radical scavenging activity by measuring decrease in chemiluminescence intensity at 0.25 to 1 mM by luminescence based assay; type: functional
[13] = Hemolytic activity in human erythrocytes at 50.0 +/- 4.3 uM incubated for 1 hrs by photometric analysis relative to control; type: ADME, cell-based, Erythrocyte; settings: read-out: Activity
[14] = Hemolytic activity in human erythrocytes at 10.0 +/- 0.8 uM incubated for 1 hrs by photometric analysis relative to control; type: ADME, cell-based, Erythrocyte; settings: read-out: Activity
[15] = test system: M-HeLa; test: Induction of apoptosis in human M-HeLa cells assessed as increase in caspase 9 expression at IC50 incubated for 24 hrs by luminescence based assay relative to control; type: functional
[16] = test system: M-HeLa; test: Induction of apoptosis in human M-HeLa cells assessed as effect on Bad expression at IC50 incubated for 24 hrs by luminescence based assay; type: functional, cell-based
[17] = test system: M-HeLa; test: Induction of apoptosis in human M-HeLa cells assessed as increase in p53 expression at IC50 incubated for 24 hrs by luminescence based assay; type: functional, cell-based
[18] = test system: M-HeLa; test: Induction of apoptosis in human M-HeLa cells assessed as increase in caspase 8 expression at IC50 incubated for 24 hrs by luminescence based assay; type: functional, cell-based
[19] = test system: M-HeLa; test: Induction of apoptosis in human M-HeLa cells assessed as increase in Akt expression at IC50 incubated for 24 hrs by luminescence based assay; type: functional, cell-based
[20] = test system: M-HeLa; test: Induction of apoptosis in human M-HeLa cells assessed as increase in bcl2 expression at IC50 incubated for 24 hrs by luminescence based assay; type: functional, cell-based
[21] = test system: M-HeLa; test: Induction of apoptosis in human M-HeLa cells assessed as increase in JNK expression at IC50 incubated for 24 hrs by luminescence based assay; type: functional, cell-based
[22] = test system: A549; test: Antiproliferative activity against human A549 cells by fluorescence based viable cell counting method; type: functional
[23] = test system: PC-3; test: Antiproliferative activity against human PC3 cells by fluorescence based viable cell counting method; type: functional
[24] = Homo sapiens, M-HeLa, read-out: IC50
[25] = Homo sapiens, MCF7, read-out: IC50

| SMILES | IC50 ([1]; Homo sapiens, read-out: IC50) [µM] | IC50 [2, 24] [µM] | MIC [3] [µM] | MIC [4] [µM] | MIC [5] [µM] | MIC [6] [µM] | MIC [8] [µM] | MIC [9] [µM] | hemolysis at 1 h, 100 uM [10] [%] | MIC [11] [µM] | Activity [12] | hemolysis at 1 h, 50 uM [13] [%] | hemolysis at 1 h, 10 uM [14] [%] | IC50 [7, 25] [µM] | further results |
| --- | --- | --- | --- | --- | --- | --- | --- | --- | --- | --- | --- | --- | --- | --- | --- |
| COc1cccc2c1C(=O)c1c(O)c3c(c(O)c1C2=O)C[C@@](O)(C(=O)CO)C[C@@H]3O[C@H]1C[C@H](N)[C@H](O)[C@H](C)O1 [DOXORUBICIN] | 1.3 | 3 | – | – | – | – | – | – | – | – | – | – | – | – | – |
| CC(C)(C)c1cc(C(c2ccc(N)cc2N)P(=O)(Oc2ccccc2)Oc2ccccc2)cc(C(C)(C)C)c1O (centres undefined) | – | – | > 500 | > 500 | > 500 | > 500 | > 500 | > 500 | 1.9 | > 500 | Active | 0.9 | 0 | – | IC50 ([7]; mcf7): Nd(Toxic); IC50 [1]: Nd(Toxic); IC50 ([2]; m-hela): Nd(Toxic) |
| CC(C)(C)c1cc(C(c2ccc(N)nc2N)P(=O)(Oc2ccccc2)Oc2ccccc2)cc(C(C)(C)C)c1O (centres undefined) | 52 | 7.4 | > 500 | > 500 | > 500 | > 500 | > 500 | > 500 | 1.9 | > 500 | Active | 0.5 | 0 | 16 | fold change (FC) [15]: 2; Activity [16]: inactive; Activity [17]: Active; Activity [18]: inactive; Activity [19]: Active; Activity [20]: Active; Activity [21]: Active |
| CC(C)OP(=O)(Cc1cc(C(C)(C)C)c(O)c(C(C)(C)C)c1)OC(C)C | 96 | 30 | – | – | – | – | – | – | – | – | Active | – | – | 68.2 | – |
| CC(C)OP(=O)(OC(C)C)C(c1cc(C(C)(C)C)c(O)c(C(C)(C)C)c1)c1ccc(N)nc1N (centres undefined) | > 100 | 38 | > 500 | > 500 | > 500 | > 500 | > 500 | > 500 | 0.3 | > 500 | Active | 0 | 0 | 21.8 | – |
| CC(C)(C)c1cc(CP(=O)(Oc2ccccc2)Oc2ccccc2)cc(C(C)(C)C)c1O | 40 | 15.6 | – | – | – | – | – | – | – | – | Active | – | – | > 100 | – |
| CCOP(=O)(OCC)C(c1cc(C(C)(C)C)c(O)c(C(C)(C)C)c1)c1ccc(N)nc1N (centres undefined) | > 100 | 17.1 | > 500 | > 500 | > 500 | > 500 | > 500 | > 500 | 0 | > 500 | Active | 0 | 0 | 34.2 | – |
| COP(=O)(C=C1C=C(C(C)(C)C)C(=O)C(C(C)(C)C)=C1)OC | 24.1 | 17.2 | – | – | – | – | – | – | – | – | Active | – | – | > 100 | – |
| CCCOP(=O)(OCCC)C(c1cc(C(C)(C)C)c(O)c(C(C)(C)C)c1)c1ccc(N)nc1N (centres undefined) | 28.1 | 11.1 | – | – | – | – | – | – | – | – | Active | – | – | 32.3 | – |
| COP(=O)(OC)C(c1cc(C(C)(C)C)c(O)c(C(C)(C)C)c1)c1ccc(N)nc1N (centres undefined) | > 100 | 16.1 | > 500 | > 500 | > 500 | > 500 | > 500 | > 500 | 0 | > 500 | Active | 0 | 0 | 31 | Activity [22]: inactive; Activity [23]: inactive |
| CCOP(=O)(OCC)C(c1cc(C(C)(C)C)c(O)c(C(C)(C)C)c1)c1ccc(N)cc1N (centres undefined) | 54.9 | 39 | > 500 | > 500 | > 500 | > 500 | > 500 | > 500 | 0 | > 500 | Active | 0 | 0 | 68.2 | – |
| COP(=O)(Cc1cc(C(C)(C)C)c(O)c(C(C)(C)C)c1)OC | > 100 | 26 | – | – | – | – | – | – | 0 | – | Active | 0 | 0 | > 100 | – |
| CC(C)OP(=O)(OC(C)C)C(c1cc(C(C)(C)C)c(O)c(C(C)(C)C)c1)c1ccc(N)cc1N (centres undefined) | – | – | > 500 | > 500 | > 500 | > 500 | > 500 | > 500 | – | > 500 | Active | – | – | – | – |
| CC(C)OP(=O)(C=C1C=C(C(C)(C)C)C(=O)C(C(C)(C)C)=C1)OC(C)C | 22.4 | 10.1 | – | – | – | – | – | – | – | – | Active | – | – | 66 | – |
| COP(=O)(OC)C(c1cc(C(C)(C)C)c(O)c(C(C)(C)C)c1)c1ccc(N)cc1N (centres undefined) | > 100 | 45.3 | > 500 | > 500 | > 500 | > 500 | > 500 | > 500 | 0 | > 500 | Active | 0 | 0 | > 100 | – |
| CC(C)(C)C1=CC(=CP(=O)(Oc2ccccc2)Oc2ccccc2)C=C(C(C)(C)C)C1=O | 17 | 14.3 | – | – | – | – | – | – | – | – | Active | – | – | 38.4 | – |
| CC/C(=C(\c1ccccc1)c1ccc(OCCN(C)C)cc1)c1ccccc1 [TAMOXIFEN] | 42.1 | – | – | – | – | – | – | – | – | – | – | – | – | – | – |

Reference: ChEMBL document CHEMBL4311994, “New 2,6-diaminopyridines containing a sterically hindered benzylphosphonate moiety in the aromatic core as potential antioxidant and anti-cancer drugs” (Eur J Med Chem, 2019)
